Values of other authors, collected in patent US20080269347A1, “EPINEPHRINE FORMULATIONS” (Azopharma, Inc., priority 2006, published 2008).
Where a name gives a salt, the structure may show the parent alone. Read-outs that look alike come from different tables or passages of the source.

pH at which unstable (in dextrose (5% in water)): above 5.5
decomposition (pH 2.5, in 200 days at 30° C.): 5%
decomposition (pH 4.5, in 200 days at 30° C.): 10%
Structure (SMILES): CNC[C@H](O)c1ccc(O)c(O)c1 [Epinephrine hydrochloride]
stability when mixed with lidocaine hydrochloride (intravenous admixture, pH raised above 5.5 to about 6): begin to deteriorate within several hours
